Columns and labels:
Type in all cases: in vivo
[1] = system: redroot pigweed (Amaranthus retroflexus, AMARE); assay: Pre-emerge test, greenhouse herbicide activity screening; settings: pre-emerge, rated 14 days after application, 0 = no damage, 100 = complete death
Summary of the method: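 Plants grown in 10 cm pots of sandy loam mix received acetone-dissolved compounds through a moving flat-fan nozzle. Doses ranged from 15 to 1000 g ai/ha. Pre-emerge pots were seeded one day earlier, post-emerge pots 8–21 days earlier. Fourteen days on, each pot was graded 0–100 for damage.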

[2] = system: barnyardgrass (Echinochloa crus-galli, ECHCG); assay: as above; settings: pre-emerge, rated 14 days after application, 0 = no damage, 100 = complete death
Summary of the method: (§1)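 Fourteen days after spraying, crop and weed injury was graded visually from 0, no effect, to 100, every plant dead. Test substances were dissolved in acetone and applied at 15–1000 g ai/ha with a flat-fan nozzle. Application was either pre-emergence, one day after sowing, or post-emergence at the 2–3 leaf stage.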

[3] = system: green foxtail (Setaria viridis, SETVI); assay: as above; settings: pre-emerge, rated 14 days after application, 0 = no damage, 100 = complete death
Summary of the method: as §1

[4] = system: ivyleaf morningglory (Ipomoea hederacea, IPOHE); assay: as above; settings: pre-emerge, rated 14 days after application, 0 = no damage, 100 = complete death
Summary of the method: as §1

[5] = system: johnsongrass (Sorghum halepense, SORHA); assay: as above; settings: pre-emerge, rated 14 days after application, 0 = no damage, 100 = complete death
Summary of the method: as §1

[6] = system: lambsquarters (Chenopodium album, CHEAL); assay: as above; settings: pre-emerge, rated 14 days after application, 0 = no damage, 100 = complete death
Summary of the method: as §1

[7] = system: large crabgrass (Digitaria sanguinalis, DIGSA); assay: as above; settings: pre-emerge, rated 14 days after application, 0 = no damage, 100 = complete death
Summary of the method: as §1

[8] = system: sicklepod (Cassia obtusifolia, CASOB); assay: as above; settings: pre-emerge, rated 14 days after application, 0 = no damage, 100 = complete death
Summary of the method: as §1

[9] = system: velvetleaf (Abutilon theophrasti, ABUTH); assay: as above; settings: pre-emerge, rated 14 days after application, 0 = no damage, 100 = complete death
Summary of the method: as §1

[10] = system: field corn (Zea mays L., var. Dekalb 535, CORN); assay: Pre-emerge test, crop safety; settings: pre-emerge, rated 14 days after application, 0 = no damage, 100 = complete death
Summary of the method: as §1

[11] = system: upland rice (Oryza sp., var. Tebonnet, RICE); assay: Pre-emerge test, crop safety; settings: pre-emerge, rated 14 days after application, 0 = no damage, 100 = complete death
Summary of the method: as §1

[12] = system: barnyardgrass (Echinochloa crus-galli, ECHCG); assay: Post-emerge test, greenhouse herbicide activity screening; settings: phytotoxicity rating 0-100 (0 no damage, 100 complete death), 14 days after application
Summary of the method: (§2)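 Sandy loam pots; pre-emerge: sown 1 d pre-spray, surface-watered after, then bottom-watered. Post-emerge: sown 8–21 d before, 2–3 leaf stage, + 0.25% v/v NIS, bottom-watered. Acetone, 187 l/ha track spray, 15–1000 g ai/ha. 0–100 injury score, day 14.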

[13] = system: green foxtail (Setaria viridis, SETVI); assay: as above; settings: phytotoxicity rating 0-100 (0 no damage, 100 complete death), 14 days after application
Summary of the method: as §2

[14] = system: ivyleaf morningglory (Ipomoea hederacea, IPOHE); assay: as above; settings: phytotoxicity rating 0-100 (0 no damage, 100 complete death), 14 days after application
Summary of the method: as §2

[15] = system: johnsongrass (Sorghum halepense, SORHA); assay: as above; settings: phytotoxicity rating 0-100 (0 no damage, 100 complete death), 14 days after application
Summary of the method: as §2

[16] = system: lambsquarters (Chenopodium album, CHEAL); assay: as above; settings: phytotoxicity rating 0-100 (0 no damage, 100 complete death), 14 days after application
Summary of the method: as §2

[17] = system: large crabgrass (Digitaria sanguinalis, DIGSA); assay: as above; settings: phytotoxicity rating 0-100 (0 no damage, 100 complete death), 14 days after application
Summary of the method: as §2

[18] = system: redroot pigweed (Amaranthus retroflexus, AMARE); assay: as above; settings: phytotoxicity rating 0-100 (0 no damage, 100 complete death), 14 days after application
Summary of the method: as §2

[19] = system: sicklepod (Cassia obtusifolia, CASOB); assay: as above; settings: phytotoxicity rating 0-100 (0 no damage, 100 complete death), 14 days after application
Summary of the method: as §2

[20] = system: velvetleaf (Abutilon theophrasti, ABUTH); assay: as above; settings: phytotoxicity rating 0-100 (0 no damage, 100 complete death), 14 days after application
Summary of the method: as §2

[21] = system: field corn (Zea mays L., var. Dekalb 535, CORN); assay: Post-emerge test, crop safety; settings: phytotoxicity rating 0-100 (0 no damage, 100 complete death), 14 days after application
Summary of the method: as §1

[22] = system: upland rice (Oryza sp., var. Tebonnet, RICE); assay: Post-emerge test, crop safety; settings: phytotoxicity rating 0-100 (0 no damage, 100 complete death), 14 days after application
Summary of the method: as §1

Q: For `COc1c(Cl)cc(F)c(-n2c(=O)cc(C(F)(F)F)n(C)c2=O)c1NC(=O)C=C(C)C` [2-7], which “Pre-emerge Herbicidal Activity AMARE (phytotoxicity rating, scale 0-100)” value ([1]; 63 g ai/ha) is on record?
A: 90

Q: And the “Pre-emerge Herbicidal Activity AMARE (phytotoxicity rating, scale 0-100)” value ([1]; 250 g ai/ha)?
A: 100

Q: What about the “Pre-emerge Herbicidal Activity ECHCG (phytotoxicity rating, scale 0-100)” value ([2]; 63 g ai/ha) of the same compound?
A: 40

Q: And the “Pre-emerge Herbicidal Activity ECHCG (phytotoxicity rating, scale 0-100)” value ([2]; 250 g ai/ha)?
A: 100

Q: What about the “Pre-emerge Herbicidal Activity SETVI (phytotoxicity rating, scale 0-100)” value ([3]; 63 g ai/ha) of the same compound?
A: 95

Q: And the “Pre-emerge Herbicidal Activity SETVI (phytotoxicity rating, scale 0-100)” value ([3]; 250 g ai/ha)?
A: 100

Q: And the “Pre-emerge Herbicidal Activity IPOHE (phytotoxicity rating, scale 0-100)” value ([4]; 63 g ai/ha)?
A: 70

Q: And the “Pre-emerge Herbicidal Activity IPOHE (phytotoxicity rating, scale 0-100)” value ([4]; 250 g ai/ha)?
A: 100

Q: What about the “Pre-emerge Herbicidal Activity SORHA (phytotoxicity rating, scale 0-100)” value ([5]; 63 g ai/ha) of the same compound?
A: 90

Q: What about the “Pre-emerge Herbicidal Activity SORHA (phytotoxicity rating, scale 0-100)” value ([5]; 250 g ai/ha) of the same compound?
A: 95

Q: And the “Pre-emerge Herbicidal Activity CHEAL (phytotoxicity rating, scale 0-100)” value ([6]; 63 g ai/ha)?
A: 100

Q: What about the “Pre-emerge Herbicidal Activity CHEAL (phytotoxicity rating, scale 0-100)” value ([6]; 250 g ai/ha) of the same compound?
A: 100

Q: What about the “Pre-emerge Herbicidal Activity DIGSA (phytotoxicity rating, scale 0-100)” value ([7]; 63 g ai/ha) of the same compound?
A: 95

Q: What about the “Pre-emerge Herbicidal Activity DIGSA (phytotoxicity rating, scale 0-100)” value ([7]; 250 g ai/ha) of the same compound?
A: 100

Q: What about the “Pre-emerge Herbicidal Activity CASOB (phytotoxicity rating, scale 0-100)” value ([8]; 63 g ai/ha) of the same compound?
A: 60

Q: What about the “Pre-emerge Herbicidal Activity CASOB (phytotoxicity rating, scale 0-100)” value ([8]; 250 g ai/ha) of the same compound?
A: 100

Q: And the “Pre-emerge Herbicidal Activity ABUTH (phytotoxicity rating, scale 0-100)” value ([9]; 63 g ai/ha)?
A: 100

Q: What about the “Pre-emerge Herbicidal Activity ABUTH (phytotoxicity rating, scale 0-100)” value ([9]; 250 g ai/ha) of the same compound?
A: 100

Q: And the “Pre-emerge crop damage CORN (phytotoxicity rating, scale 0-100)” value ([10]; 63 g ai/ha)?
A: 10

Q: What about the “Pre-emerge crop damage CORN (phytotoxicity rating, scale 0-100)” value ([10]; 250 g ai/ha) of the same compound?
A: 70

Q: And the “Pre-emerge crop damage RICE (phytotoxicity rating, scale 0-100)” value ([11]; 63 g ai/ha)?
A: 60

Q: What about the “Pre-emerge crop damage RICE (phytotoxicity rating, scale 0-100)” value ([11]; 250 g ai/ha) of the same compound?
A: 90

Q: And the “Post-emerge Herbicidal Activity ECHCG” value ([12]; 63 g ai/ha)?
A: 0

Q: What about the “Post-emerge Herbicidal Activity ECHCG” value ([12]; 250 g ai/ha) of the same compound?
A: 0

Q: And the “Post-emerge Herbicidal Activity SETVI” value ([13]; 63 g ai/ha)?
A: 0

Q: What about the “Post-emerge Herbicidal Activity SETVI” value ([13]; 250 g ai/ha) of the same compound?
A: 30

Q: And the “Post-emerge Herbicidal Activity IPOHE” value ([14]; 63 g ai/ha)?
A: 50

Q: And the “Post-emerge Herbicidal Activity IPOHE” value ([14]; 250 g ai/ha)?
A: 90

Q: What about the “Post-emerge Herbicidal Activity SORHA” value ([15]; 63 g ai/ha) of the same compound?
A: 0

Q: What about the “Post-emerge Herbicidal Activity SORHA” value ([15]; 250 g ai/ha) of the same compound?
A: 0

Q: And the “Post-emerge Herbicidal Activity CHEAL” value ([16]; 63 g ai/ha)?
A: 40

Q: What about the “Post-emerge Herbicidal Activity CHEAL” value ([16]; 250 g ai/ha) of the same compound?
A: 50

Q: What about the “Post-emerge Herbicidal Activity DIGSA” value ([17]; 63 g ai/ha) of the same compound?
A: 0

Q: And the “Post-emerge Herbicidal Activity DIGSA” value ([17]; 250 g ai/ha)?
A: 0

Q: And the “Post-emerge Herbicidal Activity AMARE” value ([18]; 63 g ai/ha)?
A: 10

Q: What about the “Post-emerge Herbicidal Activity AMARE” value ([18]; 250 g ai/ha) of the same compound?
A: 50

Q: And the “Post-emerge Herbicidal Activity CASOB” value ([19]; 63 g ai/ha)?
A: 0

Q: What about the “Post-emerge Herbicidal Activity CASOB” value ([19]; 250 g ai/ha) of the same compound?
A: 30

Q: And the “Post-emerge Herbicidal Activity ABUTH” value ([20]; 63 g ai/ha)?
A: 70

Q: And the “Post-emerge Herbicidal Activity ABUTH” value ([20]; 250 g ai/ha)?
A: 95

Q: And the “Post-emerge Herbicidal Activity CORN (crop damage)” value ([21]; 63 g ai/ha)?
A: 0

Q: And the “Post-emerge Herbicidal Activity CORN (crop damage)” value ([21]; 250 g ai/ha)?
A: 10

Q: And the “Post-emerge Herbicidal Activity RICE (crop damage)” value ([22]; 63 g ai/ha)?
A: 40

Q: And the “Post-emerge Herbicidal Activity RICE (crop damage)” value ([22]; 250 g ai/ha)?
A: 40

From patent publication US6355799B1, “Substituted benzene compounds, process for their preparation, and herbicidal and defoliant compositions containing them” (ISK Americas Incorporated, priority 1997, dated 2002)
